Consider one molecule from article PMC3733984, “Tylophorine, a phenanthraindolizidine alkaloid isolated from Tylophora indica exerts antiangiogenic and antitumor activity by targeting vascular endothelial growth factor receptor 2–mediated angiogenesis” (Molecular Cancer, 2013).

For this assay, the target named is VEGFR2 (KDR/Flk-1) (Homo sapiens, UniProt P35968). As to the kind of experiment: in vitro HTScan VEGFR2 kinase assay, colorimetric ELISA detection ([…] ATP). The format is biochemical. (ELISA stands for enzyme-linked immunosorbent assay.)
Chain of VEGFR2 (KDR/Flk-1) (P35968 20-1356): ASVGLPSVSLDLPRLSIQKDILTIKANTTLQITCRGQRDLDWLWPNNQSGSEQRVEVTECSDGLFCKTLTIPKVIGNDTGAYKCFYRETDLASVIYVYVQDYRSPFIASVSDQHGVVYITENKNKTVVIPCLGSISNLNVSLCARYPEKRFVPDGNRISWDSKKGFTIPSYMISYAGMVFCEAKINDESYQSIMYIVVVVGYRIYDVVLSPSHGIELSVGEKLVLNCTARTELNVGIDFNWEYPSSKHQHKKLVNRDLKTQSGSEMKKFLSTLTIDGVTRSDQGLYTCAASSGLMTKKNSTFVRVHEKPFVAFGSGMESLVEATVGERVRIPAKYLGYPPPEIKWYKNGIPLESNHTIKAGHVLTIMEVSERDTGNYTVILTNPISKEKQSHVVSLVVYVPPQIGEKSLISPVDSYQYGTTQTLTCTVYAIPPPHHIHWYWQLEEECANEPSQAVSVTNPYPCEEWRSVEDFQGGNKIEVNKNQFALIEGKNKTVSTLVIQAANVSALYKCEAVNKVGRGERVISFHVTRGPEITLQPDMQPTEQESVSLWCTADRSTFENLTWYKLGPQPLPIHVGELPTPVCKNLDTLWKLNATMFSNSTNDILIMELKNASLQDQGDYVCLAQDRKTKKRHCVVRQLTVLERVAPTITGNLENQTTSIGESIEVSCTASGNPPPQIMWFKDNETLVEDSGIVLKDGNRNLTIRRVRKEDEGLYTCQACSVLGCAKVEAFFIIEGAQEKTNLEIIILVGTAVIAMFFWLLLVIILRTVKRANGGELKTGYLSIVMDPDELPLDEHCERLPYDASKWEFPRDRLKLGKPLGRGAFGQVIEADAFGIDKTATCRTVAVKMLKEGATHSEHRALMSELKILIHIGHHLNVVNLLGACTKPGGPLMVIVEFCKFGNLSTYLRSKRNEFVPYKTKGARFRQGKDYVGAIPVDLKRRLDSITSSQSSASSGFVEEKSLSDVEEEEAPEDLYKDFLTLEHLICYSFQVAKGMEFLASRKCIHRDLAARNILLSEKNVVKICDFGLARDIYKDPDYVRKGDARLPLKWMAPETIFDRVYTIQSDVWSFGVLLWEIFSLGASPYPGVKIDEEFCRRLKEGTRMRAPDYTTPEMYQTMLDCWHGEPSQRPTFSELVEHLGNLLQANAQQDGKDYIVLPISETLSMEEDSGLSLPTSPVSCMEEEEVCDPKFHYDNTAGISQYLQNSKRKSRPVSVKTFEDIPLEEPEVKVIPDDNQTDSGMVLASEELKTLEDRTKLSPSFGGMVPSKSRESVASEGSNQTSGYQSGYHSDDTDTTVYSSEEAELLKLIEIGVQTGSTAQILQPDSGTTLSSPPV

Usually IC50 stands for the concentration that gives 50% inhibition. In the case of `COc1cc2c3c(c4cc(OC)c(OC)cc4c2cc1OC)CN1CCC[C@@H]1C3` [Tylophorine], the IC50 was about 9.2 µM.
